# Measurements taken from patent publication US9809623B2, “α4β7 peptide monomer and dimer antagonists” (Protagonist Therapeutics, Inc., priority 2014, dated 2017).
# Numbered stars: 1 amine (or outer) side, 2 acyl side, 3 side chain; on linkers, the order of the positions; unused ones are H or OH. Bridge positions count the residues as written; N and C are the ends. Square brackets hold non-standard residues; d marks the D form. Peptide text beside a SMILES is read from it. I, II: the chains in the order shown. Diglycolyl = O=C(COCC(=O)[*:2])[*:1]; NMeR = CN[C@@H](CCCNC(=N)N)C(=O)O; Pen = CC(C)(S)[C@H](N)C(=O)O
# What was measured:
# [1] = Simulated Intestinal Fluid (SIF) Stability Assay; format: in vitro ADME, porcine; conditions: pig, simulated intestinal fluid (SIF) with 1% porcine pancreatin, pH 6.5, Table 4-C, t1/2; > means assay stopped at that time; read-out: SIF (porcine) Min
# In short: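 Intestinal stability: percent peptide remaining over time, by LC-MS/MS peak-area ratio to internal standard, fitted to first-order decay for half-life. Conditions: 22 μM peptide, 1% pancreatin in pH 6.5 blank FASSIF, 37 °C.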
# [2] = Simulated Gastric Fluid (SGF) Assay; format: in vitro ADME; conditions: pig, simulated gastric fluid (SGF) with porcine pepsin, pH 2; Table 4-C, t1/2
# In short: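 Peptides at 20 μM final in simulated gastric fluid (NaCl, porcine pepsin, HCl; pH 2) at 37° C with shaking. Samples taken at 0, 15, 30 and 60 min, quenched in acetonitrile/0.1% formic acid and quantified by LC-MS/MS against internal standard, relative to time 0. Half-life from first-order exponential decay fit.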
# [3] = Dithiothreitol (DTT) Redox Stability Assay; format: physicochemical; conditions: Table 4-C, t1/2, 0.5 mM DTT
# In short: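 Peptide at 50 μM final in 100 mM Tris-Cl pH 7.5 was exposed to 0.5 mM DTT at room temperature. Aliquots taken at 20, 40, 80 and 120 min were quenched with acetic acid and analysed by reverse-phase HPLC at 220 nm for remaining oxidized parent. Half-lives were obtained by first-order exponential decay fit.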
# α4β1 = α4β1 (Homo sapiens, UniProt P05556+P13612); assay: α4β1-VCAM Cell Adhesion Assay (Jurkat E6.1 human cells); format: cell-based; design: host or cells: Jurkat E6.1 human T cells; conditions: Table 4-B; read-out: Cell Adhesion α4β1 IC50
# In short: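 Jurkat E6.1 cells in DMEM with 0.1% BSA, 10 mM HEPES pH 7 and 1 mM MnCl2 were added (200,000/well) with serially diluted peptides to rh VCAM-1-Fc-coated wells (400 ng/well) for 30-45 min at 37 °C. Adherent cells after washing were quantified by MTT, absorbance 570 nm, with no-cell background subtracted for dose response.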
# Chain of α4β1 (P13612 34-1032): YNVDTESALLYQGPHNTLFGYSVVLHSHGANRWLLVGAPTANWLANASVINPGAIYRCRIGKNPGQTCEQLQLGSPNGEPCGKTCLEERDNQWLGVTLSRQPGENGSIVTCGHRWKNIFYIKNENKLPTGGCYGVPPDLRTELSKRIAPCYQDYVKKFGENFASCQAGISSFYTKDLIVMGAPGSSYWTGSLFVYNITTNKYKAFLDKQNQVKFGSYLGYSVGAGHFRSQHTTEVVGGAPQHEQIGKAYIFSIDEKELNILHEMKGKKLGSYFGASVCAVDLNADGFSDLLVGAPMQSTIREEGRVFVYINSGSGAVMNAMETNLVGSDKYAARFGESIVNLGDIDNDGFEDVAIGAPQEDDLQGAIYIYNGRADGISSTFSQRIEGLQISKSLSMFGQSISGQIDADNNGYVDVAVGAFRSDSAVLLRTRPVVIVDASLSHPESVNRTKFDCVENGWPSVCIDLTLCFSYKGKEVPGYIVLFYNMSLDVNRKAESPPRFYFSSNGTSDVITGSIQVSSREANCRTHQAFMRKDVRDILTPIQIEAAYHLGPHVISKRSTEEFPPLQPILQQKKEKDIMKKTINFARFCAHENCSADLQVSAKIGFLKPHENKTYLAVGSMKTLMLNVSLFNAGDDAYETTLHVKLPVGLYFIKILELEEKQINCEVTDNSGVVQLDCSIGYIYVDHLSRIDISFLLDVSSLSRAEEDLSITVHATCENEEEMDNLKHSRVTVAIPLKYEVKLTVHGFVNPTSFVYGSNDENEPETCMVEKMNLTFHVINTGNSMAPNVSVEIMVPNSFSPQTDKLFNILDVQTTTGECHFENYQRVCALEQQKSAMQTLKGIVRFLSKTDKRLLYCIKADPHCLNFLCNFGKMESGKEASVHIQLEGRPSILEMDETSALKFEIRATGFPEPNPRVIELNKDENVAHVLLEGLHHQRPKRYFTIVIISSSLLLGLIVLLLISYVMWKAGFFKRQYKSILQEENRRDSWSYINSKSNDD
# Chain of α4β1 (P05556 21-798): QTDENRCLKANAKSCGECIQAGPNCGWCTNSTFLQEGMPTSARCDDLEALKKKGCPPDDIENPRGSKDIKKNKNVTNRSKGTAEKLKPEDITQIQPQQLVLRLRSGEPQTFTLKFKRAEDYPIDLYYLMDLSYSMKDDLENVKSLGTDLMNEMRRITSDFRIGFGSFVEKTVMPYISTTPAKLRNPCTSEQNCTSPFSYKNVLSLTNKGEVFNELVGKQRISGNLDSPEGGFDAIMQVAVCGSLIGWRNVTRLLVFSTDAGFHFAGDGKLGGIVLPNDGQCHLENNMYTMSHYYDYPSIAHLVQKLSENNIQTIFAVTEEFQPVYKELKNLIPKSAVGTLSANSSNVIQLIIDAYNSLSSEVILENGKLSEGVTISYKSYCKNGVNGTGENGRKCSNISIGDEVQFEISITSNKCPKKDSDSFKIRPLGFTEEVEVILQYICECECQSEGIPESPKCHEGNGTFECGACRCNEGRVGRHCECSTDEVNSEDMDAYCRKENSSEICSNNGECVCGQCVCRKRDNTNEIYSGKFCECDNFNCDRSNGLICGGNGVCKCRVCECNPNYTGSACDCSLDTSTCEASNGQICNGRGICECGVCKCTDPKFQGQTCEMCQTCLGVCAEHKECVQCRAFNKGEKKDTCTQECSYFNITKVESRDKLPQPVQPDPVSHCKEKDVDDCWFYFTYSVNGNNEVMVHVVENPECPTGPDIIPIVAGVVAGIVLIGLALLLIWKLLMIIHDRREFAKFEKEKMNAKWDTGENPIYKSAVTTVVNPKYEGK
smiles,measurement,setting,value
"CC(=O)N[C@@H]1C(=O)N(C)[C@@H](CCCNC(=N)N)C(=O)N[C@@H](CO)C(=O)N[C@@H](CC(=O)O)C(=O)N[C@@H]([C@@H](C)O)C(=O)N[C@@H](CC(C)C)C(=O)N[C@H](C(=O)N[C@@H](Cc2c[nH]c3ccccc23)C(=O)N[C@H](CCC(=O)O)C(=O)N[C@H](CCCCNC(=O)COCC(=O)NCCCC[C@@H](NC(=O)[C@@H](CCC(=O)O)NC(=O)[C@H](Cc2c[nH]c3ccccc23)NC(=O)[C@H]2NC(=O)[C@H](CC(C)C)NC(=O)[C@H]([C@@H](C)O)NC(=O)[C@H](CC(=O)O)NC(=O)[C@H](CO)NC(=O)[C@H](CCCNC(=N)N)N(C)C(=O)[C@@H](NC(C)=O)C(C)(C)SSC2(C)C)C(N)=O)C(N)=O)C(C)(C)SSC1(C)C [compound 211, (Ac-Pen-N-Me-R-S-D-T-L-Pen-W-e-k-NH2)2-DIG] (I: Ac-[Pen][NMeR]SDTL[Pen]W[dE][dK]-NH2 / II: Ac-[Pen][NMeR]SDTL[Pen]W[dE][dK]-NH2; disulfide I:1-I:7, II:1-II:7 (inferred); linker I:10-II:10 via Diglycolyl (inferred))",half-life at 22 μM,[1],> 5 h
same,half-life at 20 μM,[2],> 1 h
same,DTT Min,[3],>120 min
same,IC50,α4β1,> 100 µM
